The nature of one series: physchem. The format is physicochemical. Here is the method:
The solubility of one of the compounds described herein, 5-fluoro-8-{4-[4-(6-methoxyquinolin-8-yl)piperazin-1-yl]piperidin-1-yl}quinoline, as a function of pH was determined experimentally. In the study, suspensions of about 0.5-40 mg/mL of the compound were prepared in water and various concentrations of hydrochloric acid and sodium hydroxide. The suspensions were measured for pH after equilibration at ambient temperature. The suspensions were then filtered through a suitable filter for concentrated samples and centrifuged for lower concentrations, with confirmation that the supernatants were particulate-free by laser. The filtrates were then analyzed by HPLC.

The conditions of series [1]: not told.

Where two headings read alike, the source gives them in different places.

As for `COc1cc(N2CCN(C3CCN(c4ccc(F)c5cccnc45)CC3)CC2)c2ncccc2c1.O=C(O)CCC(=O)O.O=C(O)CCC(=O)O.O=C(O)CCC(=O)O` [5-fluoro-8-{4-[4-(6-methoxyquinolin-8-yl)piperazin-1-yl]piperidin-1-yl}quinoline trisuccinate], the solubility (in general, how much of the substance goes into solution per volume) is “sub-microgram per milliliter level” in the series “physchem” (pH greater than about six) and ~1000 µg/mL in “physchem” (water, thermodynamic from solid, trisuccinate salt, aqueous, read-out: aqueous solubility).
Turning to `COc1cc(N2CCN(C3CCN(c4ccc(F)c5cccnc45)CC3)CC2)c2ncccc2c1` [5-fluoro-8-{4-[4-[(6-methoxyquinolin-8-yl)piperazin-1-yl]piperidin-1-yl}quinoline], in “physchem”, the “solubility around neutral pH of the lower gastrointestinal tract” value is “less than 1 μg/mL” and the water solubility result is “approximately 0.04 μg/mL”. In series [1], the permeability result was “high permeability”.

The record behind these values is patent US20080199518A1, “Controlled-release formulation of piperazine-piperidine antagonists and agonists of the 5-HT1A receptor having enhanced intestinal dissolution” (priority 2006, published 2008).
